Data set [1] has as its system Collies. The following applies: cited from earlier work.
Data set [2] relates to Collies. Kind of data set: Loperamide neurotoxicity in Collies. It counts as in vivo, dogs. The following applies: one Collie of the study, homozygous for the mutant allele, treated with an appropriate dose as a puppy. An excerpt: Determination of the genotype of Collies is important clinically for several reasons. […] The dog tested homozygous for the mutant allele.
Data set [3] relates to Collies. The settings on record: Collies vs Beagles, one study; cited from earlier work.
In data set [4] the test system is Collies. The data set can be described thus: Ivermectin sensitivity (signs of neurotoxicosis) in Collies by mdr1 genotype. Type of data set: in vivo, dogs. The following applies: oral 120 μg/kg. How it is done:
Blood samples (8 ml) were obtained by jugular venipuncture from each of 13 clinically healthy Collies (Wil-O-Lane Kennels, Allegan, Mich.). […] Each dog was identified by an ear tattoo and housed in a run measuring 4×8 feet with metal walls and a raised, coated, metal screen floor. Facilities exceeded the minimal requirement specified by USDA guidelines.
We took advantage of a well-defined population of ivermectin-sensitive and non-sensitive Collies (Paul et al., Amer. J. Vet. Res. 61:482-483, 2000: Fassler et al., J. Am. Vet. Med. Assoc. 199:457-460, 1991). […] Clinical signs of neurotoxicity that were evaluated include apparent depression, ataxia, mydriasis, salivation, or drooling (Paul et al., Amer. J. Vet. Res. 61:482-483, 2000). Semi-quantitative reverse transcriptase PCR analysis was conducted on RNA isolated from ivermectin-sensitive and non-sensitive Collies to determine if mdr1 expression is lower in sensitive Collies than in non-sensitive Collies. Amplification of a 229-bp product of the canine glyceraldehyde 3-phosphate dehydrogenase (GAPDH) gene was used as an internal standard to control for variability in reverse transcriptase and PCR reactions.

As for `CN(C)C(=O)C(CCN1CCC(O)(c2ccc(Cl)cc2)CC1)(c1ccccc1)c1ccccc1` [loperamide, Loperamide], the “concentration in brain tissue” value with Collies [1] (affected Collies) is “high concentrations in brain tissue”. Moreover, the “neurotoxicity in Collies” value in the data set with Collies [1] (doses routinely used in other breeds) is recorded as “cause neurotoxicity”. Further, the neurologic toxicity entry with Collies [2] is listed as “severe (nearly fatal) neurologic toxicity”.

With Ivermectin, the “fraction of the lethal dose of ivermectin for Beagles that was lethal for Collies” value in the data set on Collies [3] is on record as 1/200. Also, the “ivermectin sensitivity (neurotoxicity)” value is on record as “not sensitive to ivermectin neurotoxicity” with Collies [4] (Collies heterozygous (normal/mutant) or homozygous normal) and “exhibit ivermectin sensitivity” with Collies [4] (Collies homozygous for the mdr1 deletion (mutant/mutant)).
